{
  "source": "patent US12582605B2",
  "about": "“Extended release formulations of cannabinoids” (Glatt GmbH, priority 2018, dated 2026)",
  "key": {"[1]": {"conditions": "pH values ranging from 1.2 to 7.0; cited from earlier work"}, "[2]": {"conditions": "oral administration; cited from earlier work"}, "[3]": {"assay": "Dissolution test, release of probucol (USP Type II paddle, purified water)", "assay_type": "physicochemical", "conditions": "after / through 24 hours", "experimental": "(§1) A dissolution test was conducted on the compositions using purified water, USP, as the dissolution medium in a dissolution volume of 900 ml. A USP Type II paddle apparatus was used to mix the dissolution medium at a paddle speed of 75 rpm. The bath temperature was 37° C., and a 10-μm porous filter was used to sample aliquots.\nas §1, with “Example Compositions D-H” for “the compositions”"}},
  "data": [
    {"compound": "CCCCCCC(C)(C)c1cc(O)c2c(c1)OC(C)(C)C1CCC(=O)CC21", "note": "(stereo not shown) [nabilone]", "values": [
      {"measurement": "solubility in aqueous media", "setting": "[1]", "result": "less than 0.5 mg/L"}
    ]},
    {"compound": "CCCCCc1cc(O)c2c(c1)OC(C)(C)[C@@H]1CCC(C)=C[C@@H]21", "note": "[THC, Δ9-tetrahydrocannabinol]", "values": [
      {"measurement": "duration of action", "setting": "[2]", "result": "2 to 4", "unit": "h"},
      {"measurement": "duration of psychoactive action", "setting": "[2]", "result": "4 to 6", "unit": "h"}
    ]},
    {"compound": "Tween® 80", "values": [
      {"measurement": "drug release (probucol)", "setting": "[3]", "result": 88, "unit": "% w/w"}
    ]}
  ]
}
